Here are results for 28 compounds from patent US10538487B2, “Sulfonylureas and related compounds and use of same” (priority 2015, dated 2020).

Where two headings read alike, the source gives them in different places.

Test [1] concerns the target NLRP3 inflammasome (Homo sapiens, UniProt Q96P20). In words: Inhibition of IL-1β release, NLRP3 inflammasome activation assay in HMDM. As to conditions: inhibition of IL-1β release, class symbols, read-out: Avg. IL-1β IC50 HMDM. In kind it is cell-based. The essentials:
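Primary human monocyte-derived macrophages from CD14+ buffy-coat monocytes, seeded at 1×10^5/ml. Compound added in serum-free medium 30 min before NLRP3 stimulation (ATP, nigericin, LeuLeu-OMe or MSU). Cytokine in supernatants measured by ELISA or AlphaLISA; cell death by LDH release relative to full lysis.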

In test [2] the target is NLRP3 inflammasome (Mus musculus, UniProt Q8R4B8). The test can be described thus: Inhibition of IL-1β release, NLRP3 inflammasome activation assay in BMDM. In kind it is cell-based. As for the experimental part: The following assays can be used to determine inhibitory activity of test compounds on the NLRP3 inflammasome using common stimuli such as adenosine triphosphate, nigericin, LeuLeu-OMe or monosodium urate crystals (MSU).
Mouse bone marrow-derived macrophages (BMDM) were derived from bone marrow progenitors isolated from the femurs and tibias of C57BL/6 mice.
BMDM are seeded at 1×10^5/ml. The following day the overnight medium is replaced and cells are stimulated with Ultrapure lipopolysaccharide from Escherichia coli K12 strain (InvivoGen) for 3 h. Medium is removed and replaced with serum free medium (SFM) containing test compound 30 min prior to NLRP3 stimulation. […] ATP can be sourced from Sigma Aldrich, nigericin and MSU from Invivogen and LeuLeu-Ome from Chem-Impex International.
For ELISA and cell death assays cells are seeded in 96 well plates. Supernatants are removed and analysed using ELISA kits according to the manufacturer's instructions (DuoSet® R&D Systems, ReadySetGo!® eBioscience, BD OptEIA™, or Perkin Elmer AlphaLISA®). Cell death is assessed by measurement of LDH release relative to a 100% cell lysis control using the CytoTox96® non-radioactive cytotoxicity assay (Promega).

Where [3] appears, read: inhibition of IL-1β release, class symbols, read-out: Avg. IL-1β IC50 Murine BMDM.
[4] abbreviates: inhibition of IL-1β release, numeric bounds, read-out: Avg. IL-1β IC50 Murine BMDM.

Chain of NLRP3 inflammasome (Mus musculus, UniProt Q8R4B8) (Q8R4B8 whole entry): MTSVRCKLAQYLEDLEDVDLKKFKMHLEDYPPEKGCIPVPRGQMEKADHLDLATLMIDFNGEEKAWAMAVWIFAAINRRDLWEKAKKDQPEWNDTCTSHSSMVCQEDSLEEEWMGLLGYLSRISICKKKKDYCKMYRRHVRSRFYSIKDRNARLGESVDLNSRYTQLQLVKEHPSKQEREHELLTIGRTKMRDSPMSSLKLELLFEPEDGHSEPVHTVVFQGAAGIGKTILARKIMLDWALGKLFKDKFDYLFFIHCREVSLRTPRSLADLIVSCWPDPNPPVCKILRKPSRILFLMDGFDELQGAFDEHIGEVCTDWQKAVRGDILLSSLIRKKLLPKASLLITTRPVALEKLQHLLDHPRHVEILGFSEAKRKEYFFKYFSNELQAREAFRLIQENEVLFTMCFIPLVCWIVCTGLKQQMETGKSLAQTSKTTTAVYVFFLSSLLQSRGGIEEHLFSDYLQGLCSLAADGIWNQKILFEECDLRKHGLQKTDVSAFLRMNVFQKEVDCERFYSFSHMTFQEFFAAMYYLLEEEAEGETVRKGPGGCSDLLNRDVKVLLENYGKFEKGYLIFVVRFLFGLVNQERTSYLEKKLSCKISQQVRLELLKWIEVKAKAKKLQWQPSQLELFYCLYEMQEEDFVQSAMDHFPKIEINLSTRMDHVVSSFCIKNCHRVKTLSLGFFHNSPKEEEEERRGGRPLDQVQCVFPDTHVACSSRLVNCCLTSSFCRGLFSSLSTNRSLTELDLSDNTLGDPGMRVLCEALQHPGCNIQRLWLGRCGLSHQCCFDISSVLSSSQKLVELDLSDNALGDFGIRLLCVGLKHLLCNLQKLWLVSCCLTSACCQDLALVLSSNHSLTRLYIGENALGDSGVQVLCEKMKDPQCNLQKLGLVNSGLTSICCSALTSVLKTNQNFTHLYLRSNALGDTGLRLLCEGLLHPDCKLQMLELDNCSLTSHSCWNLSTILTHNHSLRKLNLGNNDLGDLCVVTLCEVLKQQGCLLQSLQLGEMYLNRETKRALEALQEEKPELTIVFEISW
Chain of NLRP3 inflammasome (Homo sapiens, UniProt Q96P20) (Q96P20 whole entry): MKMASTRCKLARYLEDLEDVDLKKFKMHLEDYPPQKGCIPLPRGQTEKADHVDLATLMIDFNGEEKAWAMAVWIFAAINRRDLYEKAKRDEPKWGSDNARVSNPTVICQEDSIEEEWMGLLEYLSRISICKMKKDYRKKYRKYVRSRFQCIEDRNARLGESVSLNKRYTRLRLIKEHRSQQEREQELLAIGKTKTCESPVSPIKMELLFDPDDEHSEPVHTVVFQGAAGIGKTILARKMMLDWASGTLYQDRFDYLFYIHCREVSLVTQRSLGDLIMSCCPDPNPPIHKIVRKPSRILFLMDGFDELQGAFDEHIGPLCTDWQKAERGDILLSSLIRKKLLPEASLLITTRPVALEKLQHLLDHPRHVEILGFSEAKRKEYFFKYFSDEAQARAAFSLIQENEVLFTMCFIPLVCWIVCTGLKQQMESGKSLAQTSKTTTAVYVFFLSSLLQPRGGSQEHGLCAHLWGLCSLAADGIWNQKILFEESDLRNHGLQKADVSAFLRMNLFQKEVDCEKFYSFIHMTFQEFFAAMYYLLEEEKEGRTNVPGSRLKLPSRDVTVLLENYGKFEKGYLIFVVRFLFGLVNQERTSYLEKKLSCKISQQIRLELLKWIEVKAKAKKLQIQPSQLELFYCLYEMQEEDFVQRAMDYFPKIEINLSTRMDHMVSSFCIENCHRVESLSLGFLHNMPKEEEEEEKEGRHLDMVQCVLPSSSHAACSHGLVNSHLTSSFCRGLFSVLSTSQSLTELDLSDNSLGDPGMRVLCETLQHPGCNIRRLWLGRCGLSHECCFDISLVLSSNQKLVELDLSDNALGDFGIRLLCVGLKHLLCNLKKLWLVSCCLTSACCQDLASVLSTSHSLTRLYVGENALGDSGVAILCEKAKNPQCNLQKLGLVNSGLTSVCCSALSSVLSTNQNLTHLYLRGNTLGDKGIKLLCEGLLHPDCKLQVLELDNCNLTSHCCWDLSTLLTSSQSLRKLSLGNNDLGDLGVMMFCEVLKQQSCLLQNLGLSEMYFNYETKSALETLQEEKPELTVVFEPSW

In the case of `Nc1ccc(S(=O)(=O)NC(=O)Nc2c3c(cc4c2CCC4)CCC3)cc1` [4-Amino-N-((1,2,3,5,6,7-hexahydro-s-indacen-4-yl)carbamoyl)benzenesulfonamide], the IC50 is below 1 µM at NLRP3 inflammasome [1] and below 0.1 µM on NLRP3 inflammasome [2] (setting [3]). Taken in the same sequence, the figures for `CC(C)n1ccc(S(=O)(=O)NC(=O)Nc2c(C3CC3)cc(Cl)c3c2CCC3)n1` [N-((7-chloro-5-cyclopropyl-2,3-dihydro-1H-inden-4-yl)carbamoyl)-1-isopropyl-1H-pyrazole-3-sulfonamide] were below 1 µM and below 1 µM. Taken in the same sequence, the figures for `CCc1cc(Cl)cc(CC)c1NC(=O)NS(=O)(=O)c1ccn(C(C)C)n1` [N-((4-chloro-2,6-diethylphenyl)carbamoyl)-1-isopropyl-1H-pyrazole-3-sulfonamide] were below 10 µM and below 10 µM. Taken in the same sequence, the figures for `COc1ccc2c(c1)C(=O)N(CCc1ccc(S(=O)(=O)NC(=O)Nc3c4c(cc5c3CCC5)CCC4)cc1)C(=O)C2(C)C` [N-((1,2,3,5,6,7-hexahydro-s-indacen-4-yl)carbamoyl)-4-(2-(7-methoxy-4,4-dimethyl-1,3-dioxo-3,4-dihydroisoquinolin-2(1H)-yl)ethyl)benzenesulfonamide] were below 10 µM and below 1 µM. With `COc1ccc(OC)c(NC(=O)NS(=O)(=O)c2cc(C(C)(C)O)co2)c1` [N-((2,5-dimethoxyphenyl)carbamoyl)-4-(2-hydroxypropan-2-yl)furan-2-sulfonamide], the IC50 at NLRP3 inflammasome [2] (setting [3]) was below 10 µM. Still for that read-out and setting: the same measure for `COc1ccc2cc(S(=O)(=O)NC(=O)Nc3c(C(C)C)cc(Cl)cc3C(C)C)ccc2c1` [N-((4-chloro-2,6-diisopropylphenyl)carbamoyl)-6-methoxynaphthalene-2-sulfonamide]: below 0.1 µM. In the case of `O=C(Nc1c2c(cc3c1CCC3)CCC2)NS(=O)(=O)c1cn2c(n1)CCC2` [N-((1,2,3,5,6,7-hexahydro-s-indacen-4-yl)carbamoyl)-6,7-dihydro-5H-pyrrolo[1,2-a]imidazole-2-sulfonamide], the IC50 on NLRP3 inflammasome [2] (setting [3]) is below 1 µM. Still for that read-out and setting: next, `CC(C)c1cc(Cl)cc(C(C)C)c1NC(=O)NS(=O)(=O)c1cnc2ccsc2c1` [N-((4-chloro-2,6-diisopropylphenyl)carbamoyl)thieno[3,2-b]pyridine-6-sulfonamide]: below 1 µM; `CC(C)(O)c1coc(S(=O)(=O)NC(=O)Nc2c(C3CC3)cc(Cl)c3c2CCC3)c1` [N-((7-chloro-5-cyclopropyl-2,3-dihydro-1H-inden-4-yl)carbamoyl)-4-(2-hydroxypropan-2-yl)furan-2-sulfonamide]: below 0.1 µM. Still for that read-out and setting: next, `CCc1noc2ncc(S(=O)(=O)NC(=O)Nc3c(C(C)C)cc(Cl)cc3C(C)C)cc12` [N-((4-chloro-2,6-diisopropylphenyl)carbamoyl)-3-ethylisoxazolo[5,4-b]pyridine-5-sulfonamide]: below 10 µM.

Take `O=C(Nc1c2c(cc3c1CCC3)CCC2)NS(=O)(=O)c1cc(C(=O)O)co1` [5-(N-((1,2,3,5,6,7-hexahydro-s-indacen-4-yl)carbamoyl)sulfamoyl)furan-3-carboxylic acid]: at NLRP3 inflammasome [2] (setting [3]), the IC50 is below 10 µM. On to `Cc1cc(C(=O)NCCc2ccc(S(N)(=O)=O)cc2)no1` [Glisoxepide Precursor, reference compound], for which the IC50 at NLRP3 inflammasome [2] (commercial compounds (Table 9), read-out: BMDM IC50 vs NLRP3) was above 10000 µM. As to `COc1ccccc1NC(=O)NS(=O)(=O)c1cc(C(C)(C)O)co1` [4-(2-hydroxypropan-2-yl)-N-((2-methoxyphenyl)carbamoyl)furan-2-sulfonamide], the IC50 on NLRP3 inflammasome [2] (setting [3]) was below 10 µM. On the same count and under the same terms, the same measure for `Cc1cc(Cl)cc(C)c1NC(=O)NS(=O)(=O)c1cc(C(C)(C)O)co1` [N-((4-chloro-2,6-dimethylphenyl)carbamoyl)-4-(2-hydroxypropan-2-yl)furan-2-sulfonamide]: below 10 µM; for `Cc1oc(S(=O)(=O)NC(=O)Nc2c3c(cc4c2CCC4)CCC3)cc1C(C)(C)O` [N-((1,2,3,5,6,7-hexahydro-s-indacen-4-yl)carbamoyl)-4-(2-hydroxypropan-2-yl)-5-methylfuran-2-sulfonamide]: below 0.1 µM.

`COc1cc(Cl)cc(C(F)(F)F)c1NC(=O)NS(=O)(=O)c1ccn(C(C)C)n1` [N-((4-chloro-2-methoxy-6-(trifluoromethyl)phenyl)carbamoyl)-1-isopropyl-1H-pyrazole-3-sulfonamide]: the IC50 on NLRP3 inflammasome [2] (setting [4]) is above 10 µM.

As to `CC(C)(O)c1coc(S(=O)(=O)NC(=O)Nc2c3c(c(Br)c4c2OCC4)CCC3)c1` [N-((4-bromo-3,5,6,7-tetrahydro-2H-indeno[5,6-b]furan-8-yl)carbamoyl)-4-(2-hydroxypropan-2-yl)furan-2-sulfonamide], on NLRP3 inflammasome [2] (setting [3]), the IC50 is below 0.1 µM. On the same count and under the same terms, next, `CC(C)c1cc(Cl)cc(C(C)C)c1NC(=O)NS(=O)(=O)c1ccc2c(c1)CCCC2` [N-((4-chloro-2,6-diisopropylphenyl)carbamoyl)-5,6,7,8-tetrahydronaphthalene-2-sulfonamide]: below 0.1 µM; `CC(C)(O)c1coc(S(=O)(=O)NC(=O)Nc2cccc3c2OCC3)c1` [N-((2,3-dihydrobenzofuran-7-yl)carbamoyl)-4-(2-hydroxypropan-2-yl)furan-2-sulfonamide]: below 50 µM.

For the compound `CC(C)n1ccc(S(=O)(=O)NC(=O)Nc2c(C(=O)N(C)C)cc(Cl)cc2C2CC2)n1` [5-chloro-3-cyclopropyl-2-(3-((1-isopropyl-1H-pyrazol-3-yl)sulfonyl)ureido)-N,N-dimethylbenzamide], the IC50 on NLRP3 inflammasome [2] (setting [4]) was above 10 µM.

On to `CC(C)c1cc(Cl)cc(C(C)C)c1NC(=O)NS(=O)(=O)c1cccc2nccnc12` [N-((4-chloro-2,6-diisopropylphenyl)carbamoyl)quinoxaline-5-sulfonamide], for which the IC50 at NLRP3 inflammasome [2] (setting [3]) was below 0.1 µM. Turning to `CC(C)(O)c1coc(S(=O)(=O)NC(=O)Nc2c(C3CC3)cc(Cl)cc2C2CC2)c1` [N-((4-chloro-2,6-dicyclopropylphenyl)carbamoyl)-4-(2-hydroxypropan-2-yl)furan-2-sulfonamide], the IC50 at NLRP3 inflammasome [2] (setting [3]) was below 0.1 µM. Still for that read-out and setting: the same measure for `O=C(Nc1c2c(cc3c1CCC3)CCC2)NS(=O)(=O)c1ccc([N+](=O)[O-])cc1` [N-((1,2,3,5,6,7-hexahydro-s-indacen-4-yl)carbamoyl)-4-nitrobenzenesulfonamide]: below 0.1 µM. Regarding `Cc1cnc(C(=O)NCCc2ccc(S(=O)(=O)NC(=O)Nc3c4c(cc5c3CCC5)CCC4)cc2)cn1` [drawing 359], the IC50 at NLRP3 inflammasome [2] (select compounds of the first aspect (Table 10), read-out: BMDM IC50 vs NLRP3) is 0.32 µM. Regarding `O=C(Nc1c2c(cc3c1CCC3)CCC2)NS(=O)(=O)c1nnc[nH]1` [N-((1,2,3,5,6,7-hexahydro-s-indacen-4-yl)carbamoyl)-4H-1,2,4-triazole-3-sulfonamide], the IC50 on NLRP3 inflammasome [2] (setting [3]) is below 0.1 µM. As to `CC(C)(O)c1coc(S(=O)(=O)NC(=O)Nc2c3c(cc4c2CCO4)CCC3)c1` [4-(2-hydroxypropan-2-yl)-N-((3,5,6,7-tetrahydro-2H-indeno[5,6-b]furan-4-yl)carbamoyl)furan-2-sulfonamide], the IC50 on NLRP3 inflammasome [2] (setting [3]) was below 0.1 µM.

On to `CC(C)(O)c1coc(S(=O)(=O)NC(=O)Nc2cccc3c2OCCO3)c1` [N-((2,3-dihydrobenzo[b][1,4]dioxin-5-yl)carbamoyl)-4-(2-hydroxypropan-2-yl)furan-2-sulfonamide], for which, at NLRP3 inflammasome [2] (setting [3]), the IC50 is below 10 µM.

For the compound `CC(C)(O)c1coc(S(=O)(=O)NC(=O)Nc2c3c(cc4c2OCC4)CCC3)c1` [4-(2-hydroxypropan-2-yl)-N-((3,5,6,7-tetrahydro-2H-indeno[5,6-b]furan-8-yl)carbamoyl)furan-2-sulfonamide], the IC50 at NLRP3 inflammasome [2] (setting [3]) was below 0.1 µM.
